According to PubChem BioAssay AID1259407 (Chemical Carcinogenesis Research Information System (CCRIS), 2018):
The source made the active and inactive calls. How the calls were made is not given here.

System: CCRIS mutagenicity, Ames/micronucleus/aberration tests
Test: CCRIS mutagenicity studies
[1] = Test System: AMES SALMONELLA TYPHIMURIUM, Strain/Indicator: TA98, Metabolic Activation: NONE, Method: STANDARD PLATE
[2] = Test System: AMES SALMONELLA TYPHIMURIUM, Strain/Indicator: TA100, Metabolic Activation: NONE, Method: STANDARD PLATE
[3] = Test System: AMES SALMONELLA TYPHIMURIUM, Strain/Indicator: TA98, Metabolic Activation: RAT, LIVER, S-9, AROCLOR 1254, Method: STANDARD PLATE
[4] = Test System: AMES SALMONELLA TYPHIMURIUM, Strain/Indicator: TA100, Metabolic Activation: RAT, LIVER, S-9, AROCLOR 1254, Method: STANDARD PLATE

For `CN1CCC(CN2c3ccccc3Sc3ccccc32)C1` (stereo not given), the mutagenic call (End Point: IN VITRO CHROMOSOMAL ABERRATIONS, Test System: CHINESE HAMSTER OVARY CELLS, Metabolic Activation: NONE) was “inactive; negative”, the mutagenic call (End Point: IN VITRO CHROMOSOMAL ABERRATIONS, Test System: CHINESE HAMSTER OVARY CELLS, Metabolic Activation: RAT, LIVER, S-9, AROCLOR 1254) was “inactive; negative” and the mutagenic call (Test System: AMES SALMONELLA TYPHIMURIUM, Strain/Indicator: TA97, Metabolic Activation: HAMSTER, LIVER, S-9, AROCLOR 1254 (10 OR 30%), Method: PREINCUBATION) was “inactive; negative”. The mutagenic call (Test System: AMES SALMONELLA TYPHIMURIUM, Strain/Indicator: TA97, Metabolic Activation: NONE, Method: PREINCUBATION) was “inactive; negative”, the mutagenic call (Test System: AMES SALMONELLA TYPHIMURIUM, Strain/Indicator: TA97, Metabolic Activation: RAT, LIVER, S-9, AROCLOR 1254 (10 OR 30%), Method: PREINCUBATION) was “inactive; negative” and the mutagenic call (Test System: AMES SALMONELLA TYPHIMURIUM, Strain/Indicator: TA98, Metabolic Activation: HAMSTER, LIVER, S-9, AROCLOR 1254 (10%), Method: PREINCUBATION) was “inactive; negative”. The mutagenic call (Test System: AMES SALMONELLA TYPHIMURIUM, Strain/Indicator: TA98, Metabolic Activation: HAMSTER, LIVER, S-9, AROCLOR 1254 (30%), Method: PREINCUBATION) was “inactive; negative”, the mutagenic call (Test System: AMES SALMONELLA TYPHIMURIUM, Strain/Indicator: TA98, Metabolic Activation: NONE, Method: PREINCUBATION) was “inactive; negative” and the mutagenic call (Test System: AMES SALMONELLA TYPHIMURIUM, Strain/Indicator: TA98, Metabolic Activation: RAT, LIVER, S-9, AROCLOR 1254 (10%), Method: PREINCUBATION) was “inactive; negative”. For the same molecule, the mutagenic call (Test System: AMES SALMONELLA TYPHIMURIUM, Strain/Indicator: TA98, Metabolic Activation: RAT, LIVER, S-9, AROCLOR 1254 (30%), Method: PREINCUBATION) was “inactive; negative”, the mutagenic call (Test System: AMES SALMONELLA TYPHIMURIUM, Strain/Indicator: TA100, Metabolic Activation: HAMSTER, LIVER, S-9, AROCLOR 1254 (10%), Method: PREINCUBATION) was “inactive; negative” and the mutagenic call (Test System: AMES SALMONELLA TYPHIMURIUM, Strain/Indicator: TA100, Metabolic Activation: HAMSTER, LIVER, S-9, AROCLOR 1254 (30%), Method: PREINCUBATION) was “inactive; negative”. For the same molecule, the mutagenic call (Test System: AMES SALMONELLA TYPHIMURIUM, Strain/Indicator: TA100, Metabolic Activation: NONE, Method: PREINCUBATION) was “inactive; negative”, the mutagenic call (Test System: AMES SALMONELLA TYPHIMURIUM, Strain/Indicator: TA100, Metabolic Activation: RAT, LIVER, S-9, AROCLOR 1254 (10%), Method: PREINCUBATION) was “inactive; negative” and the mutagenic call (Test System: AMES SALMONELLA TYPHIMURIUM, Strain/Indicator: TA100, Metabolic Activation: RAT, LIVER, S-9, AROCLOR 1254 (30%), Method: PREINCUBATION) was “inactive; negative”. The mutagenic call (Test System: AMES SALMONELLA TYPHIMURIUM, Strain/Indicator: TA1535, Metabolic Activation: HAMSTER, LIVER, S-9, AROCLOR 1254 (10%), Method: PREINCUBATION) was “inactive; negative”, the mutagenic call (Test System: AMES SALMONELLA TYPHIMURIUM, Strain/Indicator: TA1535, Metabolic Activation: HAMSTER, LIVER, S-9, AROCLOR 1254 (30%), Method: PREINCUBATION) was “inactive; negative” and the mutagenic call (Test System: AMES SALMONELLA TYPHIMURIUM, Strain/Indicator: TA1535, Metabolic Activation: NONE, Method: PREINCUBATION) was “inactive; negative”. The mutagenic call (Test System: AMES SALMONELLA TYPHIMURIUM, Strain/Indicator: TA1535, Metabolic Activation: RAT, LIVER, S-9, AROCLOR 1254 (10%), Method: PREINCUBATION) was “inactive; negative”, the mutagenic call (Test System: AMES SALMONELLA TYPHIMURIUM, Strain/Indicator: TA1535, Metabolic Activation: RAT, LIVER, S-9, AROCLOR 1254 (30%), Method: PREINCUBATION) was “inactive; negative” and the mutagenic call (Test System: AMES SALMONELLA TYPHIMURIUM, Strain/Indicator: TA1537, Metabolic Activation: HAMSTER, LIVER, S-9, AROCLOR 1254 (10%), Method: PREINCUBATION) was “inactive; negative”. For the same molecule, the mutagenic call (Test System: AMES SALMONELLA TYPHIMURIUM, Strain/Indicator: TA1537, Metabolic Activation: NONE, Method: PREINCUBATION) was “inactive; negative” and the mutagenic call (Test System: AMES SALMONELLA TYPHIMURIUM, Strain/Indicator: TA1537, Metabolic Activation: RAT, LIVER, S-9, AROCLOR 1254 (10%), Method: PREINCUBATION) was “inactive; negative”.
For `CC(C)c1cc(-c2ccccc2)ccc1N`, the mutagenic call [1] was “inactive; negative”, the mutagenic call (Test System: AMES SALMONELLA TYPHIMURIUM, Strain/Indicator: TA98, Metabolic Activation: RAT LIVER S-9, AROCLOR, Method: STANDARD PLATE) was “active; positive” and the mutagenic call [2] was “inactive; negative”. For the same molecule, the mutagenic call (Test System: AMES SALMONELLA TYPHIMURIUM, Strain/Indicator: TA100, Metabolic Activation: RAT LIVER S-9, AROCLOR, Method: STANDARD PLATE) was “active; positive”.
With `Nc1ccc(F)cc1` the mutagenic call (End Point: IN VITRO MICRONUCLEUS, Test System: CHL/IU CELLS, Metabolic Activation: RAT, LIVER, S-9, PHENOBARBITAL AND 5,6-BENZOFLAVONE) was “active; positive”, the mutagenic call (Test System: AMES SALMONELLA TYPHIMURIUM, Strain/Indicator: TA98, Metabolic Activation: HAMSTER, LIVER, S-9, AROCLOR 1254, Method: STANDARD PLATE) was “active; positive” and the mutagenic call [1] was “inactive; negative”. For the same molecule, the mutagenic call [3] was “active; positive”, the mutagenic call (Test System: AMES SALMONELLA TYPHIMURIUM, Strain/Indicator: TA100, Metabolic Activation: HAMSTER, LIVER, S-9, AROCLOR 1254, Method: STANDARD PLATE) was “active; positive” and the mutagenic call [2] was “inactive; negative”. The mutagenic call [4] was “active; positive”, the mutagenic call (Test System: E. COLI, Strain/Indicator: WP2 UVRA, Metabolic Activation: NONE, Method: FLUCTUATION TEST) was “inactive; negative” and the mutagenic call (Test System: MOUSE LYMPHOMA, Strain/Indicator: L5178Y (TK+/TK-), Metabolic Activation: NONE, Method: SUSPENSION/PLATE) was “active; positive. reevaluation of results: equivocal”. For the same molecule, the mutagenic call (Test System: Mouse lymphoma, Strain/Indicator: L5178Y (tk+/tk-), Metabolic Activation: Rat, Liver, S-9, Aroclor 1254, Method: Suspension/plate) was “inconclusive (previous evaluation equivocal)”.
In the case of `CC1=CC=C(C(C)C)CC1`, the mutagenic call (Test System: AMES SALMONELLA TYPHIMURIUM, Strain/Indicator: TA97A, Metabolic Activation: NONE, Method: STANDARD PLATE) was “inactive; negative”, the mutagenic call (Test System: AMES SALMONELLA TYPHIMURIUM, Strain/Indicator: TA97A, Metabolic Activation: RAT, LIVER, S-9, AROCLOR 1254, Method: STANDARD PLATE) was “inactive; negative” and the mutagenic call [1] was “inactive; negative”. For the same molecule, the mutagenic call [3] was “inactive; negative”, the mutagenic call [2] was “inactive; negative” and the mutagenic call [4] was “inactive; negative”. For the same molecule, the mutagenic call (Test System: AMES SALMONELLA TYPHIMURIUM, Strain/Indicator: TA1535, Metabolic Activation: NONE, Method: STANDARD PLATE) was “inactive; negative” and the mutagenic call (Test System: AMES SALMONELLA TYPHIMURIUM, Strain/Indicator: TA1535, Metabolic Activation: RAT, LIVER, S-9, AROCLOR 1254, Method: STANDARD PLATE) was “inactive; negative”.
